Columns and labels:
[1] = system: silverleaf whitefly (Bemisia argentifolii); experiment: Test Example 3: silverleaf whitefly on cabbage (foliar scattering); format: in vivo; details: 168 h, 20 ml/cup on cabbage 8 days after egg laying, seven days after scattering, read-out: insecticidal rate
Procedure: A preparation prepared from each of the compounds (1), (2), (5), (6), (8), (9), (16), (77) and (78) of the present invention and the comparative compound (A) according to Formulation Example 5 was diluted with water so that the concentration of the compound of the present invention became 500 ppm to obtain a test scattering solution.
On the other hand, soil was filled in polyethylene cups, cabbage was planted in each cup, and grown until its first foliage leaves developed, and leaves other than a first foliage leaves were removed. About 200 imagoes of silverleaf whitefly (Bemisia argentifolii) were released on this cabbage for about 24 hours, and had them lay eggs on the cabbage first foliage leaf.
The thus obtained cabbage on which about 80 to 100 eggs of silverleaf whitefly (Bemisia argentifolii) were laid was allowed to stand in a greenhouse for 8 days, and the aforementioned test scattering solution was scattered at a ratio of 20 ml/cup. Seven days after scattering, the number of alive insects was examined, and an insecticidal rate was calculated.

[2] = system: western flower thrips (Frankliniella occidentalis); experiment: Test Example 2: western flower thrips damage on treated cucumber leaf; format: in vivo; details: 500 ppm, 20 ml/cup on cucumber, cut first foliage leaf, 30 larvae, after seven days
Procedure: A preparation prepared from each of the compound (1) of the present invention and a comparative compound (A) according to Formulation Example 5 was diluted with water so that the concentration of the compound of the present invention became 500 ppm to obtain a test scattering solution. On the other hand, soil was filled into polyethylene cups, cucumber was planted in each cup, and grown until its first foliage leaves developed. The aforementioned test scattering solution was scattered on the cucumber at a ratio of 20 ml/cup, and the scattered solution on the surface of the leaf was dried. The first foliage leaf was cut off, placed on a filter (diameter 70 mm) impregnated with water in a polyethylene cup (diameter 110 mm), 30 larvae of western flower thrips (Frankliniella occidentalis) were released thereon, and the polyethylene cup was closed with a lid. After seven days, a damage degree of the cucumber leaf by western flower thrips (Frankliniella occidentalis) was examined.

| melting point [°C] | Structure (SMILES) | pest or weed control at 500 ppm [1] [%] | damage area rate by western flower thrips in the treated leaf [2] [%] |
| --- | --- | --- | --- |
|  | CC#CCOc1nsc(-c2cccc(F)c2F)n1 [compound (16), 5-(2,3-difluorophenyl)-3-(2-butynyloxy)-1,2,4-thiadiazole] | ≥ 90 |  |
|  | CC#CCOc1nsc(-c2ccccc2F)n1 [compound (5), 5-(2-fluorophenyl)-3-(2-butynyloxy)-1,2,4-thiadiazole] | ≥ 90 |  |
|  | CC#CCOc1nsc(-c2ccccc2Cl)n1 [compound (8), 5-(2-chlorophenyl)-3-(2-butynyloxy)-1,2,4-thiadiazole] | ≥ 90 |  |
|  | CCC#CCOc1nsc(-c2cccc(Cl)c2)n1 [compound (78), 5-(3-chlorophenyl)-3-(2-pentynyloxy)-1,2,4-thiadiazole] | ≥ 90 |  |
| 68.7 | CC#CCOc1nsc(-c2cccc(F)c2)n1 [compound (6), 5-(3-fluorophenyl)-3-(2-butynyloxy)-1,2,4-thiadiazole] | ≥ 90 |  |
|  | CC#CCOc1nsc(-c2cccc(Cl)c2)n1 [compound (9), 5-(3-chlorophenyl)-3-(2-butynyloxy)-1,2,4-thiadiazole] | ≥ 90 |  |
| 70.3 | CC#CCOc1nsc(-c2ccccc2)n1 [compound (2), 5-phenyl-3-(2-butynyloxy)-1,2,4-thiadiazole] | ≥ 90 |  |
|  | CCC#CCOc1nsc(-c2ccccc2Cl)n1 [compound (77), 5-(2-chlorophenyl)-3-(2-pentynyloxy)-1,2,4-thiadiazole] | ≥ 90 |  |
| 66.9 | C#CCOc1nsc(-c2ccccc2)n1 [compound (1), 5-phenyl-3-propargyloxy-1,2,4-thiadiazole] | ≥ 90 | ≤ 5 |
|  | C#CCOc1nnc(-c2ccccc2)s1 [comparative compound (A), reference compound] | ≤ 30 | ≥ 20 |

Reference: patent US7361675B2, “1,2,4-thiadiazole compounds and use thereof” (Sumitomo Chemical Company Limited, priority 2002, dated 2008)
